According to PMC6572064, “Discovery of 2-(1-(3-(4-Chloroxyphenyl)-3-oxo- propyl)pyrrolidine-3-yl)-1H-benzo[d]imidazole-4-carboxamide: A Potent Poly(ADP-ribose) Polymerase (PARP) Inhibitor for Treatment of Cancer” (Molecules, 2019):
Where two headings read alike, the source gives them in different places.

Legend:
[1] = system: CAPAN-1 (a BRCA-2-mutated pancreatic cancer cell line); experiment: Cell proliferation assay, three-day, CellTiter-Glo, CAPAN-1; assay type: cell-based
Experimental: (§1) A three-day assay was conducted. A cell suspension was prepared. Cell density was counted by an automated cell counter and then diluted to the required density, according to seeding density. 50 μL cells were seeded into 384-well plate in growth medium according to the plate map. The cells were incubated at 37 °C, 5% CO2 overnight.
(§2) 200× compound solution in DMSO was prepared and diluted with growth medium to 26× final concentration by addition of 26 μL 200× compounds to 174 μL growth medium. Then 2 μL of diluted compound solution was added to cells and the cell was incubated at 37 °C, 5% CO2 for 72 h.
(§3) The assay plate was equilibrated to room temperature prior to measurement. 15 μL of CellTiter-Glo Reagent was added into each well and the contents were mixed for 2 min on an orbital shaker to induce cell lysis. The cells were incubated at room temperature for 60 min to stabilize luminescent signal. Luminescence was recorded on the Envision system.

[2] = biological target: T1, PARP-1 (Homo sapiens, UniProt P09874); experiment: PARP-1 inhibition assay (PARP-1 Chemiluminescent Assay Kit, BPS Bioscience); assay type: biochemical
T1 construct: purchased BPS Bioscience 80569
Experimental: (§4) The PARP-1 and PARP-2 inhibition assays were performed in outsourcing, by a CRO company, Shanghai Medicilon Inc. (Shanghai, China). […] Briefly, PARP-1 or PARP-2 biotinylated substrate was incubated with compounds or solvent control at varying concentrations and an assay buffer containing the PARP-1 or PARP-2 enzyme.

[3] = biological target: T2, PARP-2 (Homo sapiens, UniProt Q9UGN5); experiment: PARP-2 inhibition assay (PARP-2 Chemiluminescent Assay Kit, BPS Bioscience); assay type: biochemical
T2 construct: purchased BPS Bioscience 80552
Experimental: as §4

[4] = system: MDA-MB-436 (a BRCA-1-mutated breast cancer cell line); experiment: Cell proliferation assay, three-day, CellTiter-Glo, MDA-MB-436; assay type: cell-based; settings: for IC50 / inhibition at 0.00508 µM / inhibition at 0.0152 µM / inhibition at 0.0457 µM / inhibition at 0.41 µM / inhibition at 1.23 µM / inhibition at 3.7 µM / inhibition at 11.11 µM / inhibition at 33.33 µM / inhibition at 100 µM: Homo sapiens
Experimental: as §1, §2, §3

[5] = Homo sapiens, CAPAN-1, read-out: Inh % 1
[6] = Homo sapiens, CAPAN-1, read-out: Inh % 2

T2 sequence (Q9UGN5 whole entry): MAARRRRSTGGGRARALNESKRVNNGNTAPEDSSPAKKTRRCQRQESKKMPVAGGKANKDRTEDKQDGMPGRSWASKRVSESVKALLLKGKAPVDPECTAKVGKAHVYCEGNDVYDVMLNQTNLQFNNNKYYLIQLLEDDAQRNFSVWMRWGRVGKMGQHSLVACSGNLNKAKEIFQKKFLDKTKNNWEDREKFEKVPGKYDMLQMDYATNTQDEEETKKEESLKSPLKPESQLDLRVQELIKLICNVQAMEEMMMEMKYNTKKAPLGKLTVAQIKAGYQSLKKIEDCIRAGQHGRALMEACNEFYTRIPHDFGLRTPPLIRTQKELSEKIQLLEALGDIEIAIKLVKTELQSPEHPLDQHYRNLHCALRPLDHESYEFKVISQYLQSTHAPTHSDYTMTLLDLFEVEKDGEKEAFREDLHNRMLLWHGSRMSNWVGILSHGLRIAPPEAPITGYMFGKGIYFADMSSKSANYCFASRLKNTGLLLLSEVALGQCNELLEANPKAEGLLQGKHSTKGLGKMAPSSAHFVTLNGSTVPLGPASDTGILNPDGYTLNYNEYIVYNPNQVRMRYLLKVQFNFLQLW
T1 sequence (P09874 whole entry): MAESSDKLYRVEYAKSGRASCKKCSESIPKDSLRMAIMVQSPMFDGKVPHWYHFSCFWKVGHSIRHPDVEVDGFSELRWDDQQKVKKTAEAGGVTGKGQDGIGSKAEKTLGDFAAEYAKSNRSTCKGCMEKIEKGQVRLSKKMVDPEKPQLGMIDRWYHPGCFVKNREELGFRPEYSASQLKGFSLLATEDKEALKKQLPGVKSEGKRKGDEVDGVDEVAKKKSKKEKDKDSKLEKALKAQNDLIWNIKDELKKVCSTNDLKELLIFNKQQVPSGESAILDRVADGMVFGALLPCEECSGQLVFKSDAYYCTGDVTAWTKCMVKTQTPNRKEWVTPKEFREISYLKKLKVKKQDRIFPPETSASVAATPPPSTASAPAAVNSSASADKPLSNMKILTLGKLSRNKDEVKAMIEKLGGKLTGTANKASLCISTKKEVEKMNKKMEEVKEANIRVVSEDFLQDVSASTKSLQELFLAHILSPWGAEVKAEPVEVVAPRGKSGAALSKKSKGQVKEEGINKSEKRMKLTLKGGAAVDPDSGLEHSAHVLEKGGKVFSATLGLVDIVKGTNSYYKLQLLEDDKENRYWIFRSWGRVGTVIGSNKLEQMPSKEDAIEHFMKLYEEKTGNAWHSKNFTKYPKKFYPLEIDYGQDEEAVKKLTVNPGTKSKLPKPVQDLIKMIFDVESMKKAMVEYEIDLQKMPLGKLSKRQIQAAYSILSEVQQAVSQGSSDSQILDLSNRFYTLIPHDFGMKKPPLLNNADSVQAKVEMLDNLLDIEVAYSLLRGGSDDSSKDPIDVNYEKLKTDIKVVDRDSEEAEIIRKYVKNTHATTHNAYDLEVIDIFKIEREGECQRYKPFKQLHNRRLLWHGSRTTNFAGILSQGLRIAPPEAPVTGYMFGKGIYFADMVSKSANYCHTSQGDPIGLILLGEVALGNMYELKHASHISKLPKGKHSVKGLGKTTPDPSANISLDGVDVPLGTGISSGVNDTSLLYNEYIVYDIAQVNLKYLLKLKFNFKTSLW

SMILES: NC(=O)c1cccc2[nH]c(C3CCN(CCC(O)c4ccccc4)C3)nc12 (centres unmarked) [Compound 5cg, 2-(1-(3-Hydroxy-3-phenylpropyl)pyrrolidin-3-yl)-1H-benzo[d]imi-dazole-4-carboxamide]
- LogIC50 ([1]; CAPAN-1, curve-fit output, Log (uM)): 2.199
- IC50 ([1]; Homo sapiens, CAPAN-1, 72 h, read-out: CAPAN-1 IC50 (μM)): > 100 µM
- inhibition at 0.00508 µM [1, 5]: 4.5%
- inhibition at 0.0152 µM [1, 5]: 16.3%
- inhibition at 0.0457 µM [1, 5]: 5.6%
- inhibition at 0.41 µM [1, 5]: 14.3%
- inhibition at 1.23 µM [1, 5]: 11.4%
- inhibition at 3.7 µM [1, 5]: 16.5%
- inhibition at 11.11 µM [1, 5]: 22%
- inhibition at 33.33 µM [1, 5]: 33.5%
- inhibition at 100 µM [1, 5]: 47.6%
- inhibition at 0.00508 µM [1, 6]: -5.2%
- inhibition at 0.0152 µM [1, 6]: -0.0618%
- inhibition at 0.0457 µM [1, 6]: 0.1%
- inhibition at 0.41 µM [1, 6]: 8.8%
- inhibition at 1.23 µM [1, 6]: 2.5%
- inhibition at 3.7 µM [1, 6]: 5.4%
- inhibition at 11.11 µM [1, 6]: -1.6%
- inhibition at 33.33 µM [1, 6]: 14%
- inhibition at 100 µM [1, 6]: 38.6%
- inhibition at 0.01 µM ([2]; read-out: 10 nM inhibition% PAPR-1): -2.11%
- inhibition at 0.01 µM ([2]; read-out: PARP-1 Inhibition % (10 nM)): -2.1%
- inhibition at 0.01 µM ([3]; read-out: 10 nM inhibition% PAPR-2): 6.45%
- inhibition at 0.01 µM ([3]; read-out: PARP-2 Inhibition % (10 nM)): 6.5%
- IC50 ([4]; MDA-MB-436): 74.1 µM
- IC50 ([4]; MDA-MB-436, 72 h): 74.1 µM
- IC50 ([4]; MDA-MB-436, 72 h, read-out: MDA-MB-436 IC50 (μM)): 74.1 µM
- inhibition at 0.00508 µM ([4]; MDA-MB-436, read-out: Inh % 1): 2.1%
- inhibition at 0.0152 µM ([4]; MDA-MB-436, read-out: Inh % 1): -3.5%
- inhibition at 0.0457 µM ([4]; MDA-MB-436, read-out: Inh % 1): -5.7%
- inhibition at 0.41 µM ([4]; MDA-MB-436, read-out: Inh % 1): -16.8%
- inhibition at 1.23 µM ([4]; MDA-MB-436, read-out: Inh % 1): -6%
- inhibition at 3.7 µM ([4]; MDA-MB-436, read-out: Inh % 1): -10.1%
- inhibition at 11.11 µM ([4]; MDA-MB-436, read-out: Inh % 1): 0.536%
- inhibition at 33.33 µM ([4]; MDA-MB-436, read-out: Inh % 1): 21.6%
- inhibition at 100 µM ([4]; MDA-MB-436, read-out: Inh % 1): 68%
- inhibition at 0.00508 µM ([4]; MDA-MB-436, read-out: Inh % 2): -5%
- inhibition at 0.0152 µM ([4]; MDA-MB-436, read-out: Inh % 2): -7%
- inhibition at 0.0457 µM ([4]; MDA-MB-436, read-out: Inh % 2): -13.4%
- inhibition at 0.41 µM ([4]; MDA-MB-436, read-out: Inh % 2): -9.8%
- inhibition at 1.23 µM ([4]; MDA-MB-436, read-out: Inh % 2): -9.1%
- inhibition at 3.7 µM ([4]; MDA-MB-436, read-out: Inh % 2): -17.7%
- inhibition at 11.11 µM ([4]; MDA-MB-436, read-out: Inh % 2): -6.9%
- inhibition at 33.33 µM ([4]; MDA-MB-436, read-out: Inh % 2): 10.8%
- inhibition at 100 µM ([4]; MDA-MB-436, read-out: Inh % 2): 46.7%
- LogIC50 ([4]; MDA-MB-436, curve fit on Log (uM) concentrations): 1.87
- Top ([4]; MDA-MB-436, curve fit parameter (Inh %), '= 100.0' is a constrained value): = 100.0
